ChEMBL document CHEMBL1201862, “PubChem BioAssay data set” (2004)
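96-well plates; 48 h exposure; 5 concentrations. Endpoints by linear interpolation between flanking doses. Not reached: highest tested concentration assigned. The concentration for 50% growth inhibition is given as GI50.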 Activity calls are given as the source filed them. Cut-off read from the data, not from the text of the source: active = GI50 up to about 1.1 µM and inactive = higher.

Legend:
Experiment in all cases: NCI tumour cell line growth inhibition, 48 h
RXF 393 = tested on: RXF 393
HT-29 = tested on: HT-29
TK-10 = tested on: TK-10
UACC-257 = tested on: UACC-257
MDA-N = tested on: MDA-N
PC-3 = tested on: PC-3
K562 = tested on: K562
OVCAR-4 = tested on: OVCAR-4
UACC-62 = tested on: UACC-62
SK-MEL-28 = tested on: SK-MEL-28
MOLT-4 = tested on: MOLT-4
UO-31 = tested on: UO-31
LOX IMVI = tested on: LOX IMVI
ACHN = tested on: ACHN
SNB-19 = tested on: SNB-19
MDA-MB-435 = tested on: MDA-MB-435
KM12 = tested on: KM12
RPMI-8226 = tested on: RPMI-8226
M14 = tested on: M14
OVCAR-8 = tested on: OVCAR-8

Structure (SMILES)	GI50 (RXF 393)	GI50 (HT-29)	GI50 (TK-10)	GI50 (UACC-257)	GI50 (MDA-N)	GI50 (PC-3)	GI50 (K562)	GI50 (OVCAR-4)	GI50 (UACC-62)	GI50 (SK-MEL-28)	GI50 (MOLT-4)	GI50 (UO-31)	GI50 (LOX IMVI)	GI50 (ACHN)	GI50 (SNB-19)	GI50 (MDA-MB-435)	GI50 (KM12)	GI50 (RPMI-8226)	GI50 (M14)	GI50 (OVCAR-8)
N#Cc1ccc(Oc2nc3ccccc3nc2-c2ccccc2)cc1	> 100 µM (inactive)	> 100 µM (inactive)	> 100 µM (inactive)	> 100 µM (inactive)	> 100 µM (inactive)	> 100 µM (inactive)	> 100 µM (inactive)	> 100 µM (inactive)	> 100 µM (inactive)	> 100 µM (inactive)	> 100 µM (inactive)	> 100 µM (inactive)	> 100 µM (inactive)	> 100 µM (inactive)	> 100 µM (inactive)	> 100 µM (inactive)	> 100 µM (inactive)	> 100 µM (inactive)		
COC(=O)c1cc(NC(=O)Cn2c3ccccc3c3ccccc32)cn1C	39.1 µM (inactive)	49.9 µM (inactive)	49.7 µM (inactive)	53.8 µM (inactive)	> 100 µM (inactive)	31 µM (inactive)	59.2 µM (inactive)	17.3 µM (inactive)	17.1 µM (inactive)	> 100 µM (inactive)	61 µM (inactive)	25 µM (inactive)	53.3 µM (inactive)	33.7 µM (inactive)	39.4 µM (inactive)	78.5 µM (inactive)	38.2 µM (inactive)	19.5 µM (inactive)	> 100 µM (inactive)	30.1 µM (inactive)
CC(=O)O[C@@H]1C[C@@]23C[C@@]24CC[C@H](OC2OCC(O)C(O)C2O)C(C)(C)[C@@H]4CC=C3[C@]2(C)C[C@@H]3OC4(C[C@@H](C)[C@@H]3[C@@]12C)OC(O)[C@@]1(C)O[C@@H]41 (stereo partly specified)	15.9 µM (inactive)	33.2 µM (inactive)	36 µM (inactive)	26.9 µM (inactive)	30.9 µM (inactive)	22.9 µM (inactive)	23.8 µM (inactive)	48.4 µM (inactive)	21.7 µM (inactive)	41.2 µM (inactive)		41.8 µM (inactive)	23.4 µM (inactive)	43.5 µM (inactive)	75.2 µM (inactive)	32.4 µM (inactive)	33.7 µM (inactive)	19.6 µM (inactive)	47.2 µM (inactive)	41.7 µM (inactive)
C=C1CC(CNc2cc(Cl)nc(N)n2)C1	50.9 µM (inactive)	> 100 µM (inactive)	> 100 µM (inactive)	39.6 µM (inactive)	> 100 µM (inactive)	> 100 µM (inactive)	71.6 µM (inactive)	57.1 µM (inactive)	> 100 µM (inactive)	> 100 µM (inactive)	> 100 µM (inactive)	> 100 µM (inactive)	> 100 µM (inactive)	> 100 µM (inactive)	> 100 µM (inactive)	> 100 µM (inactive)	> 100 µM (inactive)	49.9 µM (inactive)		> 100 µM (inactive)
O=c1oc2ccccc2c(-c2ccc(O)cc2)c1Oc1ccccc1	23 µM (inactive)	> 52.1 µM (inactive)	8.05 µM (inactive)	7.83 µM (inactive)	14.3 µM (inactive)	8.49 µM (inactive)	34.6 µM (inactive)	20.4 µM (inactive)	5.18 µM (inactive)	18.8 µM (inactive)	28.8 µM (inactive)	7.73 µM (inactive)	9.93 µM (inactive)	10.2 µM (inactive)	17.7 µM (inactive)	22.1 µM (inactive)	23.6 µM (inactive)	28.1 µM (inactive)	9.16 µM (inactive)	
O=C(NC(C(F)(F)F)(C(F)(F)F)P(=O)(c1ccccc1)c1ccccc1)C(C(F)(F)F)C(F)(F)F	20.2 µM (inactive)	14.5 µM (inactive)	37.2 µM (inactive)	29.4 µM (inactive)	20.4 µM (inactive)	27.8 µM (inactive)	33.6 µM (inactive)	37.7 µM (inactive)	56 µM (inactive)	32.9 µM (inactive)	26.7 µM (inactive)		23.2 µM (inactive)	16.7 µM (inactive)	71.3 µM (inactive)	18.7 µM (inactive)	26.2 µM (inactive)	33.6 µM (inactive)	17.1 µM (inactive)	29.3 µM (inactive)
N#Cc1nsnc1-c1nc(-c2nsnc2C#N)nc(-c2nsnc2C#N)n1	63.8 µM (inactive)	> 100 µM (inactive)	71.4 µM (inactive)	> 100 µM (inactive)	> 100 µM (inactive)	> 100 µM (inactive)	> 100 µM (inactive)	> 100 µM (inactive)	> 100 µM (inactive)	> 100 µM (inactive)	> 100 µM (inactive)	> 100 µM (inactive)	> 100 µM (inactive)	> 100 µM (inactive)	> 100 µM (inactive)	> 100 µM (inactive)	96.2 µM (inactive)	> 100 µM (inactive)		> 100 µM (inactive)
CCOC(=O)C(=O)N/N=C1\C(=O)Nc2ccccc21	> 100 µM (inactive)		> 100 µM (inactive)	> 100 µM (inactive)	> 100 µM (inactive)	> 100 µM (inactive)	> 100 µM (inactive)	> 100 µM (inactive)	> 100 µM (inactive)	> 100 µM (inactive)	> 100 µM (inactive)	> 100 µM (inactive)	> 100 µM (inactive)	> 100 µM (inactive)	> 100 µM (inactive)	> 100 µM (inactive)	> 100 µM (inactive)	> 100 µM (inactive)	> 100 µM (inactive)	> 100 µM (inactive)
CCN(CC)CC(=O)O[C@]1(CC)C(=O)OCc2c1cc1n(c2=O)Cc2cc3ccccc3nc2-1	0.0836 µM (active)	0.0957 µM (active)	1.36 µM (inactive)	0.0798 µM (active)	0.0951 µM (active)	0.054 µM (active)	0.0451 µM (active)	0.201 µM (active)	< 0.01 µM (active)	0.179 µM (active)	< 0.01 µM (active)	0.0196 µM (active)	< 0.0116 µM (active)	< 0.01 µM (active)	< 0.01 µM (active)	0.0703 µM (active)	0.149 µM (active)	0.165 µM (active)	< 0.0201 µM (active)	0.0285 µM (active)
OC(C1CCCC1=N/N=C1/CCCC1C(O)(C(F)(F)Cl)C(F)(F)Cl)(C(F)(F)Cl)C(F)(F)Cl (stereo unspecified)	> 10 µM (inactive)	> 10 µM (inactive)	> 10 µM (inactive)	> 10 µM (inactive)	> 10 µM (inactive)	> 10 µM (inactive)	> 10 µM (inactive)	> 10 µM (inactive)	> 10 µM (inactive)	> 10 µM (inactive)	> 10 µM (inactive)		> 10 µM (inactive)	> 10 µM (inactive)	> 10 µM (inactive)	> 10 µM (inactive)	> 10 µM (inactive)	> 10 µM (inactive)	> 10 µM (inactive)	> 10 µM (inactive)
C=C1C(=O)O[C@H]2C/C(C)=C/CC[C@]3(C)CCC[C@](C)(CC[C@@H]12)O3	8.09 µM (inactive)	8.26 µM (inactive)	8.38 µM (inactive)	8.85 µM (inactive)	14.6 µM (inactive)	12.6 µM (inactive)	8.49 µM (inactive)	15.1 µM (inactive)	8.69 µM (inactive)	7.52 µM (inactive)	6.71 µM (inactive)	8.69 µM (inactive)	12.2 µM (inactive)	8.99 µM (inactive)	15.8 µM (inactive)	7.01 µM (inactive)	8.43 µM (inactive)	5.93 µM (inactive)		7.64 µM (inactive)
CCOC(=O)N1CCNCCN(C(=O)OCC)CCNCC1	> 100 µM (inactive)	> 100 µM (inactive)	> 100 µM (inactive)	> 100 µM (inactive)	> 100 µM (inactive)	> 100 µM (inactive)	> 100 µM (inactive)	> 100 µM (inactive)	> 100 µM (inactive)	> 100 µM (inactive)	> 100 µM (inactive)	> 100 µM (inactive)	> 100 µM (inactive)	> 100 µM (inactive)	> 100 µM (inactive)	> 100 µM (inactive)		> 100 µM (inactive)	> 100 µM (inactive)	> 100 µM (inactive)
COC(=O)C1(Cc2ccc3c(c2)CCC3)Cc2ccc3c(c2C1O)CCC3 (stereo unspecified)	14.5 µM (inactive)	15.2 µM (inactive)	17.3 µM (inactive)	10.7 µM (inactive)	15.4 µM (inactive)	15.1 µM (inactive)	> 100 µM (inactive)	5.79 µM (inactive)	15.5 µM (inactive)	14.7 µM (inactive)	> 100 µM (inactive)	10.7 µM (inactive)	12.6 µM (inactive)	13 µM (inactive)		13 µM (inactive)	14.8 µM (inactive)	17 µM (inactive)		17.3 µM (inactive)
C=C1C(=O)OC2C1CC(O)/C(C)=C\CCC1(C)OC21 (stereo unspecified)	16.8 µM (inactive)	27.5 µM (inactive)	39.3 µM (inactive)	34 µM (inactive)	19.1 µM (inactive)	23.2 µM (inactive)		25.6 µM (inactive)	21.2 µM (inactive)	33.3 µM (inactive)	7.35 µM (inactive)	22.9 µM (inactive)	27 µM (inactive)	39.5 µM (inactive)	48.1 µM (inactive)	27.2 µM (inactive)	32.9 µM (inactive)	21.4 µM (inactive)	23.1 µM (inactive)	33.8 µM (inactive)
